Tested on: hypertensive subjects
Assay: Seated automated office blood pressure (AOBP) in randomized, placebo-controlled, dose-ranging study
Assay type: in vivo, human
Conditions: for Placebo-adjusted reduction in AOBP SBP, exploratory MMRM analysis by BMI: data not shown; for Mean (SD) Automated Office-Measured Systolic Blood Pressure at Wk 8 / Mean (SD) Change from Baseline at Week 8 in Automated Office-Measured Systolic Blood Pressure / Mean (SD) Automated Office-Measured Diastolic Blood Pressure at Wk 8 / Mean (SD) Change from Baseline at Week 8 in Automated Office-Measured Diastolic Blood Pressure: Part 1, 12.5 mg BID
Method: A randomized, double-blinded, placebo-controlled, dose-ranging, multicenter study was conducted to evaluate the effect of orally administered Compound A HBr on blood pressure for the treatment of hypertension in male and female subjects ≥18 years of age.
The study consists of two parts. For enrollment into Part 1 of the study, a subject's value of plasma renin activity (PRA) must be ≤1 ng/mL/h based on morning measurement. If the value of PRA >1 ng/mL/h based on morning measurement, then subjects may be eligible to enter Part 2 of the study.
For Part 1, 163 enrolled subjects ≥18 years of age were randomized into 6 equal treatment groups (1:1:1:1:1:1) to 12.5 mg BID, 25 mg BID, 12.5 mg QD, 50 mg QD, 100 mg QD, or placebo. After a review of interim clinical data, the 2 lowest dose levels (12.5 mg QD and 12.5 mg BID) were stopped for future randomization due to a lack of consistent meaningful reduction of blood pressure, but the patients randomized to that point remained in the study through completion. Thus, after the review of interim clinical data, subjects were randomized into 4 equal treatment groups (1:1:1:1) to 25 mg BID, 50 mg QD, 100 mg QD, or placebo.
For Part 2, 36 enrolled subjects ≥18 years of age were randomized (5:1) to either 100 mg QD Compound A HBr or placebo such that the Compound A HBr treatment group consisted of approximately 30 subjects and the placebo treatment group will consist of approximately 6 subjects.
Subjects orally administered the assigned study drug (Compound A HBr or placebo) according to the assigned dosing regimen for 8 weeks beginning on Study Day 1. All subjects in Part 1 (regardless of dosing group) received BID dosing to preserve the integrity of the blind; active drug is administered as the morning dose for all QD dose groups. Subjects returned to the research facility or were seen by the clinical investigator or approved home health care professional at the end of Study Weeks 1, 2, 3, 4, 5, 6, 7, and 8 (±2 days) for protocol-defined efficacy and safety assessments and procedures, assessment of adverse events (AEs), and confirmation of compliance with study drug usage. Subjects also completed a telephone visit and blood pressure (BP) check at home approximately 3 days post last dose of study drug. Subjects attended up to 14 full clinic visits, including a pre-Screening visit, a Screening/start of Placebo Run-in visit, a second visit during Placebo Run-in, a clinic visit to initiate the ABPM procedure, a Randomization visit, 8 weekly visits during double-blind treatment, and an end-of-study visit scheduled 4 weeks after the last study treatment for final efficacy and safety assessments.
An automated oscillometric sphygmomanometer device was used to measure the subjects' systolic and diastolic blood pressure in office after approximately 5 minutes of rest in the seated position.
The primary endpoint is the change in office-measured (mean of last 2 of 5 unattended measurements using an automated oscillometric sphygmomanometer device after approximately 5 minutes of rest in the seated position) systolic blood pressure (SBP) from baseline to the end of Study Week 8.
Secondary endpoints of this study were: • (a) Change in 24-hour ambulatory blood pressure monitoring (ABPM) parameters (systolic and diastolic) from baseline to the end of Study Week 7. • (b) Change in office-measured SBP from baseline to the end of Study Weeks 1, 2, 3, 4, 5, 6, and 7. • (c) Change in office-measured diastolic blood pressure (DBP) from baseline to the end of Study Weeks 1, 2, 3, 4, 5, 6, 7, and 8. • (d) Proportion of subjects who achieve office-measured BP of ≤130/80 mm Hg by the end of Study Week 8.

CC(=O)N[C@H]1CC[C@H](NC(=O)CN2CCN(c3nncc(-c4ccc(C)cc4)n3)CC2)CC1 [Compound A HBr]
Subjects with seated AOBP SBP/DBP ≤130/80 mmHg: No (100 mg QD, Week 8, Part 2, FAS): 14 (45.2) n (%)
Subjects with seated AOBP SBP/DBP ≤130/80 mmHg: Yes (100 mg QD, Week 8, Part 2, FAS): 17 (54.8) n (%)
Placebo-adjusted reduction in AOBP SBP, exploratory MMRM analysis by BMI (Part 1 50 mg QD cohort): −16.7 mmHg
Placebo-adjusted reduction in AOBP SBP, exploratory MMRM analysis by BMI (Part 1 100 mg QD cohort): −12.3 mmHg
Mean (SD) Automated Office-Measured Systolic Blood Pressure at Wk 8 (ACEi/ARB No): 131.50 (16.22) mmHg
Mean (SD) Change from Baseline at Week 8 in Automated Office-Measured Systolic Blood Pressure (ACEi/ARB No): −18.75 (21.77) mmHg
Mean (SD) Automated Office-Measured Systolic Blood Pressure at Wk 8 (ACEi/ARB Yes): 132.00 (12.59) mmHg
Mean (SD) Change from Baseline at Week 8 in Automated Office-Measured Systolic Blood Pressure (ACEi/ARB Yes): −12.47 (17.09) mmHg
Mean (SD) Automated Office-Measured Diastolic Blood Pressure at Wk 8 (ACEi/ARBs No): 76.25 (12.37) mmHg
Mean (SD) Change from Baseline at Week 8 in Automated Office-Measured Diastolic Blood Pressure (ACEi/ARBs No): −4.00 (8.79) mmHg
Mean (SD) Automated Office-Measured Diastolic Blood Pressure at Wk 8 (ACEi/ARBs Yes): 74.93 (9.86) mmHg
Mean (SD) Change from Baseline at Week 8 in Automated Office-Measured Diastolic Blood Pressure (ACEi/ARBs Yes): −6.33 (9.02) mmHg
Mean (SD) Automated Office-Measured Diastolic Blood Pressure at Wk 8 (AHTs 2): 79.67 (11.78) mmHg
Mean (SD) Automated Office-Measured Systolic Blood Pressure at Wk 8 (AHTs 2): 136.33 (11.76) mmHg
Mean (SD) Change from Baseline at Week 8 in Automated Office-Measured Diastolic Blood Pressure (AHTs 2): −5.25 (7.78) mmHg
Mean (SD) Change from Baseline at Week 8 in Automated Office-Measured Systolic Blood Pressure (AHTs 2): −8.33 (13.28) mmHg
Mean (SD) Automated Office-Measured Diastolic Blood Pressure at Wk 8 (AHTs ≥3): 73.15 (8.93) mmHg
Mean (SD) Automated Office-Measured Systolic Blood Pressure at Wk 8 (AHTs ≥3): 129.85 (13.37) mmHg
Mean (SD) Change from Baseline at Week 8 in Automated Office-Measured Diastolic Blood Pressure (AHTs ≥3): −6.12 (9.49) mmHg
Mean (SD) Change from Baseline at Week 8 in Automated Office-Measured Systolic Blood Pressure (AHTs ≥3): −16.31 (19.35) mmHg
Mean (SD) Automated Office-Measured Diastolic Blood Pressure at Wk 8 (Age 65-79 yr): 76.18 (7.87) mmHg
Mean (SD) Automated Office-Measured Systolic Blood Pressure at Wk 8 (Age 65-79 yr): 135.73 (11.26) mmHg
Mean (SD) Change from Baseline at Week 8 in Automated Office-Measured Diastolic Blood Pressure (Age 65-79 yr): −3.18 (7.91) mmHg
Mean (SD) Change from Baseline at Week 8 in Automated Office-Measured Systolic Blood Pressure (Age 65-79 yr): −12.77 (19.08) mmHg
Mean (SD) Automated Office-Measured Diastolic Blood Pressure at Wk 8 (Age <65 yr): 79.17 (9.58) mmHg
Mean (SD) Automated Office-Measured Systolic Blood Pressure at Wk 8 (Age <65 yr): 132.17 (11.13) mmHg
Mean (SD) Change from Baseline at Week 8 in Automated Office-Measured Diastolic Blood Pressure (Age <65 yr): −5.67 (5.02) mmHg
Mean (SD) Change from Baseline at Week 8 in Automated Office-Measured Systolic Blood Pressure (Age <65 yr): −6.92 (7.84) mmHg
Mean (SD) Automated Office-Measured Diastolic Blood Pressure at Wk 8 (Age ≥80 yr): 58.00 (7.07) mmHg
Mean (SD) Automated Office-Measured Systolic Blood Pressure at Wk 8 (Age ≥80 yr): 110.00 (1.41) mmHg
Mean (SD) Change from Baseline at Week 8 in Automated Office-Measured Diastolic Blood Pressure (Age ≥80 yr): −21.00 (9.90) mmHg
Mean (SD) Change from Baseline at Week 8 in Automated Office-Measured Systolic Blood Pressure (Age ≥80 yr): −40.00 (4.24) mmHg
Mean (SD) Automated Office-Measured Diastolic Blood Pressure at Wk 8 (BMI 25−30 kg/m^2): 71.75 (9.07) mmHg
Mean (SD) Change from Baseline at Week 8 in Automated Office-Measured Diastolic Blood Pressure (BMI 25−30 kg/m^2): −8.00 (7.56) mmHg
Mean (SD) Automated Office-Measured Diastolic Blood Pressure at Wk 8 (BMI <25 kg/m^2): 92.00 (NE) mmHg
Mean (SD) Change from Baseline at Week 8 in Automated Office-Measured Diastolic Blood Pressure (BMI <25 kg/m^2): 6.00 (NE) mmHg
Mean (SD) Automated Office-Measured Diastolic Blood Pressure at Wk 8 (BMI >30 kg/m^2): 75.00 (9.80) mmHg
Mean (SD) Change from Baseline at Week 8 in Automated Office-Measured Diastolic Blood Pressure (BMI >30 kg/m^2): −6.07 (9.01) mmHg
Mean (SD) Automated Office-Measured Systolic Blood Pressure at Wk 8 (BMI at baseline 25-30 kg/m^2): 125.50 (14.89) mmHg
Mean (SD) Change from Baseline at Week 8 in Automated Office-Measured Systolic Blood Pressure (BMI at baseline 25-30 kg/m^2): −23.88 (24.55) mmHg
Mean (SD) Automated Office-Measured Systolic Blood Pressure at Wk 8 (BMI at baseline <25 kg/m^2): 150.00 (NE) mmHg
Mean (SD) Change from Baseline at Week 8 in Automated Office-Measured Systolic Blood Pressure (BMI at baseline <25 kg/m^2): 2.50 (NE) mmHg
Mean (SD) Automated Office-Measured Systolic Blood Pressure at Wk 8 (BMI at baseline >30 kg/m^2): 132.43 (11.93) mmHg
Mean (SD) Change from Baseline at Week 8 in Automated Office-Measured Systolic Blood Pressure (BMI at baseline >30 kg/m^2): −12.07 (15.48) mmHg
Mean (SD) Automated Office-Measured Diastolic Blood Pressure at Wk 8 (Race Black or AA): 79.14 (8.49) mmHg
Mean (SD) Automated Office-Measured Systolic Blood Pressure at Wk 8 (Race Black or AA): 137.71 (13.50) mmHg
